Test results reported in patent US20190002429A1, “Derivatives of Xanthone Compounds” (Agency for Science, Technology and Research, priority 2011, published 2019).
Several values for one entry are separate records, joined by “and”; a condition that tells them apart may be missing. Identical values can stand only once. Like-named read-outs stand apart in the source and are kept apart here.

What was measured:
[1] = Calcein leakage from DOPE:DOPG liposomes; details: DOPE:DOPG = 3:1
Description: (§1) To further investigate antimicrobial action of the active compounds via inner membrane targeting, a calcein leakage study was performed. In brief, liposomes which mimic bacterial membrane (DOPE: […] The lipids were dissolved in methanol/chloroform (1:2, by volume). The solvent was then dried gently using a constant stream of nitrogen gas. Then, the lipid film was placed under vacuum for at least two hours. […] The hydrated vesicles were freeze-thaw (frozen in liquid nitrogen and warmed in water bath) for at least 7 cycles. Extrusion method using mini-extruder (Avanti Polar Lipid Inc.) was used to produce homogeneous large unilamellar vesicles (LUVs). The extrusion was done for at least 10 cycles using a polycarbonate membrane (Whatman, pore size 100 nm) to obtain LUVs with diameter of 100 nm. To separate the calcein encapsulated vesicles from free calcein, gel filtration column Sephadex G-50 was used. The concentrations of eluted liposomes were determined using total phosphorus determination assay. Leakage of calcein from the liposome induced by AM-series compounds could be monitored using fluorescence spectroscopy (Photon Technology International Model 814) at an excitation wavelength of 490 nm and an emission wavelength of 520 nm. […] Those compounds with […] HC50 values have stronger leakage %. […] To further investigate the inner membrane targeting action of AM-series compounds, E. coli lipid extract was used to construct the liposome. […] Therefore, the outer layer of Gram-negative bacteria (LPS) may play important role to impede the AM-series compounds to reach inner membrane. Calcein leakage data strongly support the active compounds are inner membrane targeting.

[2] = system: Staphylococcus aureus 10: DB6506 (MRSA04/10) (VISA); assay: MIC against S. aureus DB6506 (VISA); assay type: cell-based; details: no unit in table (Example 10 MICs in μg/ml)
MRSA DR42412 = assay: MIC against MRSA DR42412; assay type: cell-based, Staphylococcus aureus
MRSA DM21595 = assay: MIC against MRSA DM21595; assay type: cell-based, Staphylococcus aureus
S. aureus DM4001 = assay: SYTOX green membrane permeabilization assay, S. aureus; details: 10 μM
Description: S. aureus DM4001 was harvested at early exponential phase and suspended in 40 mM PBS until OD620 of 0.09 was obtained. Then, the bacteria suspension was incubated with 3 μM of SYTOX Green in dark. The mixture was monitored in a stirring cuvette at an excitation wavelength of 504 nm and at an emission wavelength of 523 nm until the fluorescence was stable. Then, 10 μM of AM compounds were added and the changed of fluorescence emissions were monitored.

[3] = system: Clinical Staphylococcus aureus DM4583R; assay: MIC against clinical S. aureus DM4583R; assay type: cell-based; details: Source: Eye
[4] = system: S. aureus and Enterococcus faecalis; details: 4 strains, sub-inhibitory concentrations, FIG. 8
[5] = system: Enterococcus faecalis ATCC 51299 VRE; assay: MIC against Enterococcus faecalis ATCC 51299 VRE; assay type: cell-based; details: E. faecalis ATCC 51299 VRE; no unit in table (Example 10 MICs in μg/ml)
[6] = system: Staphylococcus aureus ATCC 700699 (VISA); assay: MIC against S. aureus ATCC 700699 (MRSA-700699, VISA); assay type: cell-based
[7] = system: Straphylococcus aureus ATCC 6538P; assay: MIC against S. aureus ATCC 6538P; assay type: cell-based, Staphylococcus aureus
[8] = system: Enterococcus faecalis 11: DS6527 (VRE 208/11); assay: MIC against Enterococcus faecalis DS6527 (VRE 208/11); assay type: cell-based; details: E. faecalis DS6527 (VRE 208/11); no unit in table (Example 10 MICs in μg/ml)
[9] = system: Mycobacterium tuberculosis
[10] = system: Streptococcus epidermidis ATCC 12228; assay: MIC against Streptococcus epidermidis ATCC 12228; assay type: cell-based
Gram-positive bacteria = assay: Antimicrobial activity against Gram-positive bacteria (statement); assay type: cell-based
[11] = system: Straphylococcus aureus ATCC 25923; assay: MIC against S. aureus ATCC 25923; assay type: cell-based, Staphylococcus aureus
S. aureus = assay: MIC99 against S. aureus (Table 2-1); assay type: cell-based, Staphylococcus aureus
[12] = Calcein leakage from E. coli lipid extract liposomes; details: for % Leakage of calcein: E. coli extract
Description: as §1

[13] = system: Clinical Staphylococcus aureus DM4400R; assay: MIC against clinical S. aureus DM4400R; assay type: cell-based; details: Source: Cornea
[14] = pH value in different media; assay type: physicochemical
Description: The pH values were obtained using an electronic pH meter.

[15] = system: Streptococcus faecium ATCC 10541; assay: MIC against Streptococcus faecium ATCC 10541; assay type: cell-based
[16] = system: Pseudomonas aeruginosa ATCC27853; assay: MIC against Pseudomonas aeruginosa ATCC27853; assay type: cell-based
MRSA DM21455 = assay: MIC against MRSA DM21455; assay type: cell-based, Staphylococcus aureus
[17] = system: Clinical Staphylococcus aureus DM4001; assay: MIC against clinical S. aureus DM4001; assay type: cell-based; details: Clinical S. aureus DM4001, Source: Eye
[18] = system: Staphylococcus aureus ATCC 6538; assay: MIC against S. aureus ATCC 6538; assay type: cell-based
[19] = system: Enterococcus faecalis ATCC 29212; assay: MIC against Enterococcus faecalis ATCC 29212; assay type: cell-based
[20] = system: Klebsiella pneumoniae ATCC10031; assay: MIC against Klebsiella pneumoniae ATCC10031; assay type: cell-based

3,6-bis-[4-(diethylamino)butoxy)]-1-hydroxy-7-methoxy-2,8-bis(3-methylbut-2-enyl)-9H-xanthen-9-one [AM-016]
% Leakage of calcein ([1]; compound:lipid ratio 1:2): 54.43%
% Leakage of calcein ([1]; compound:lipid ratio 1:4): 37.00%
% Leakage of calcein ([1]; compound:lipid ratio 1:8): 21.00%
Minimum inhibitory concentration [2]: 0.78
HC50 (red blood cell): 19.6 µg/mL
Hemolytic concentration, HC50 (red blood cell): 19.6 µg/mL
Minimum inhibition concentration (MIC) (MRSA DR42412; MRSA DR42412, Source: Sputum): 1.56 μg/ml and 2.35 μM
MIC (MRSA DR42412; MRSA-42412 (Sputum), Example 10, Mueller Hinton broth dilution): 0.395 µg/mL
Minimum inhibition concentration (MIC) (MRSA DM21595; MRSA DM21595, Source: Wound): 0.78 μg/ml and 1.17 μM
MIC (MRSA DM21595; MRSA-21595 (Wound), Example 10, Mueller Hinton broth dilution): 0.395 µg/mL
SYTOX green staining of bacteria (fluorescence microscopy) (S. aureus DM4001; FIG. 14): Large numbers of stained bacteria
Membrane permeabilization (SYTOX green fluorescence emission) (S. aureus DM4001; fluorescence spectroscopy): could induce membrane permeabilization
Minimum inhibition concentration (MIC) [3]: 0.78 μg/ml and 1.17 μM
Resistance (>4-fold increase in original MIC) in multipassage study [4]: no evidence of resistance or cross-resistance
Minimum inhibitory concentration [5]: 1.56
MIC ([6]; MRSA-700699, Example 10, Mueller Hinton broth dilution): 0.095 µg/mL
Minimum inhibitory concentration ([6]; S. aureus ATCC 700699 (VISA), no unit in table (Example 10 MICs in μg/ml)): 0.39
Minimum inhibition concentration (MIC) [7]: 0.78 μg/ml and 1.17 μM
Minimum inhibitory concentration [8]: 0.098
MIC100 [9]: 4 µM
MIC100 ([9]; value in brackets): 2.66 µg/mL
Minimum inhibition concentration (MIC) [10]: 0.78 μg/ml and 1.17 μM
Activity against Gram-positive bacteria (Gram-positive bacteria): active
Minimum inhibition concentration (MIC) [11]: 3.125 μg/ml and 4.70 μM
MIC99 S. aureus (S. aureus): 0.39 µg/mL
Leakage of calcein from the E. coli lipid extract (in words) [12]: able to induce leakage
% Leakage of calcein ([12]; compound:lipid ratio 1:2): 57.82%
% Leakage of calcein ([12]; compound:lipid ratio 1:4): 58.43%
% Leakage of calcein ([12]; compound:lipid ratio 1:8): 31.70%
Minimum inhibition concentration (MIC) [13]: 0.78 μg/ml and 1.17 μM
pH ([14]; PBS, 50 μg/ml compound): 6.96 ± 0.01
pH ([14]; PBS, 100 μg/ml compound): 6.97 ± 0.01
pH ([14]; Saline, 50 μg/ml compound): 6.84 ± 0.21
pH ([14]; Saline, 100 μg/ml compound): 6.78 ± 0.05
pH ([14]; Water, 50 μg/ml compound): 6.44 ± 0.27
pH ([14]; Water, 70 μg/ml compound): 6.72 ± 0.23
Minimum inhibition concentration (MIC) [15]: 0.195 μg/ml and 0.295 μM
Minimum inhibition concentration (MIC) [16]: 50 μg/ml and 75.20 μM
Minimum inhibition concentration (MIC) (MRSA DM21455; MRSA DM21455, Source: Eye): 0.39 μg/ml and 0.59 μM
MIC (MRSA DM21455; MRSA-21455 (Eye), Example 10, Mueller Hinton broth dilution): 1.56 µg/mL
Minimum inhibition concentration (MIC) [17]: 1.56 μg/ml and 2.35 μM
Minimum inhibition concentration (MIC) [18]: 1.56 μg/ml and 2.35 μM
Minimum inhibition concentration (MIC) [19]: 0.78 μg/ml and 1.17 μM
Minimum inhibition concentration (MIC) [20]: 40 μg/ml and 60.16 μM
